Molecular target: human 5-HT2C(VSV) (Homo sapiens, UniProt P28335, I156V/I160V/N158S)
Experiment: cell-based

human 5-HT2C(VSV), sequence (P28335 33-458 I156V/N158S/I160V limits assumed): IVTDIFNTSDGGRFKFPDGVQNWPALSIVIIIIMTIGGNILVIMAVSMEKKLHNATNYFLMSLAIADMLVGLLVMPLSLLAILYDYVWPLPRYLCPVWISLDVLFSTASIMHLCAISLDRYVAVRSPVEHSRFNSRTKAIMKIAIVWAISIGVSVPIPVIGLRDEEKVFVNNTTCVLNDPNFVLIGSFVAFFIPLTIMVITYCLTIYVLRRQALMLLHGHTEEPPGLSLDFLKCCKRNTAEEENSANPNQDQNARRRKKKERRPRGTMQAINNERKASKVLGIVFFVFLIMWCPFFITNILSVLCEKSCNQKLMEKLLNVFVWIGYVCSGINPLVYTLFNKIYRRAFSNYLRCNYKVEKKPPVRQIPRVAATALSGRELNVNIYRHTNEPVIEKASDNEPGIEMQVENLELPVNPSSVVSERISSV

CCn1cc(CCNCc2cccc(Cl)c2)c2c(OCc3ccccc3)cc(F)cc21 [31-9, 2-(4-(benzyloxy)-1-ethyl-6-fluoro-1H-indol-3-yl)-N-(3-chlorobenzyl)ethanamine]
EC50: 500 to 10000 nM

COc1ccc(-c2ccco2)c2c1c(CCN(C)C)cn2C [6-8, 2-(7-(furan-2-yl)-4-methoxy-1-methyl-1H-indol-3-yl)-N,N-dimethylethanamine]
EC50: 500 to 10000 nM

CCOc1c(F)ccc2c1c(CCN1CCCC1CO)cn2C (stereo not shown) [30-24, (1-(2-(4-ethoxy-5-fluoro-1-methyl-1H-indol-3-yl)ethyl)pyrrolidin-2-yl)methanol]
EC50: 500 to 10000 nM

CCOc1c(F)ccc2c1c(CCNCCc1ccccn1)cn2C [30-27, 2-(4-ethoxy-5-fluoro-1-methyl-1H-indol-3-yl)-N-(2-(pyridin-2-yl)ethyl)ethanamine]
EC50: 1 to 500 nM

CNCCc1cn(C)c2ccc(F)c(OCCc3ccc(F)cc3)c12 [33-28, 2-(5-fluoro-4-(4-fluorophenethoxy)-1-methyl-1H-indol-3-yl)-N-methylethanamine]
EC50: 1 to 500 nM

CNCCc1cn(C)c2ccc(F)c(OCc3ccccc3F)c12 [33-24, 2-(5-fluoro-4-(2-fluorobenzyloxy)-1-methyl-1H-indol-3-yl)-N-methylethanamine]
EC50: 1 to 500 nM

CCn1cc(CCN2C[C@@H](C)O[C@@H](C)C2)c2c(O)cc(F)cc21 [11-13]
EC50: 500 to 10000 nM

CCOc1c(F)ccc2c1c(CCNCc1ccccc1C(F)(F)F)cn2C [30-21, 2-(4-ethoxy-5-fluoro-1-methyl-1H-indol-3-yl)-N-(2-(trifluoromethyl)benzyl)ethanamine]
EC50: 1 to 500 nM

COc1ccc(F)c2c1c(CCN1CCOCC1)cn2C [11-9, 4-(2-(7-fluoro-4-methoxy-1-methyl-1H-indol-3-yl)ethyl)morpholine]
EC50: 1 to 500 nM

CCn1cc(CCNc2ccccc2)c2c(O)ccc(F)c21 [11-7, 1-ethyl-7-fluoro-3-(2-(phenylamino)ethyl)-1H-indol-4-ol]
EC50: 500 to 10000 nM

CNCCc1cn(C)c2ccc(F)c(OCc3cccc(Cl)c3)c12 [33-8, 2-(4-(3-chlorobenzyloxy)-5-fluoro-1-methyl-1H-indol-3-yl)-N-methylethanamine]
EC50: 1 to 500 nM

CCn1cc(CCN2CCCOCC2)c2c(O)cc(F)cc21 [11-12, 3-(2-(1,4-oxazepan-4-yl)ethyl)-1-ethyl-6-fluoro-1H-indol-4-ol]
EC50: 500 to 10000 nM

CN(C)CCc1cn(C)c2ccc(F)c(OCc3cccs3)c12 [1-20a, 2-(5-fluoro-1-methyl-4-(thiophen-2-ylmethoxy)-1H-indol-3-yl)-N,N-dimethylethanamine]
EC50: 1 to 500 nM

CN(CCc1cn(C)c2ccc(F)c(OCc3ccccc3C#N)c12)Cc1ccccc1C#N [35-2, 2-((3-(2-((2-cyanobenzyl)(methyl)amino)ethyl)-5-fluoro-1-methyl-1H-indol-4-yloxy)methyl)benzonitrile]
EC50: 500 to 10000 nM

CCn1cc(CCNCCc2ccccc2)c2c(OC)ccc(F)c21 [20-7, 2-(1-ethyl-7-fluoro-4-methoxy-1H-indol-3-yl)-N-phenethylethanamine]
EC50: 1 to 500 nM

CNCCc1cn(C)c2ccc(F)c(OCc3ccc(Cl)c(OC(F)(F)F)c3)c12 [33-49, 2-(4-(4-chloro-3-(trifluoromethoxy)benzyloxy)-5-fluoro-1-methyl-1H-indol-3-yl)-N-methylethanamine]
EC50: < 10000 nM

CCOc1c(F)ccc2c1c(CCNC1Cc3ccccc3C1)cn2C [30-16, N-(2-(4-ethoxy-5-fluoro-1-methyl-1H-indol-3-yl)ethyl)-2,3-dihydro-1H-inden-2-amine]
EC50: 1 to 500 nM

CCn1cc(CCN(C)C)c2c(OC)c(CCCO)cc(F)c21 [27-3, 3-(3-(2-(dimethylamino)ethyl)-1-ethyl-7-fluoro-4-methoxy-1H-indol-5-yl)propan-1-ol]
EC50: 1 to 500 nM

NCCc1cn(CC2COc3ccccc3O2)c2ccc(F)c(O)c12 (stereo not shown) [19-5, 3-(2-aminoethyl)-1-((2,3-dihydrobenzo[b][1,4]dioxin-2-yl)methyl)-5-fluoro-1H-indol-4-ol]
EC50: 1 to 500 nM

Source: US8912220B2 (priority 2009, dated 2014)
